Laboratory results reported in the NIST ThermoML archive (doi:10.1021/acs.jced.5b00922).
Numbers after ± are expanded uncertainties.

Columns and labels:
[1] = Liquid; for viscosity: Capillary tube (Ostwald / Ubbelohde) method; for mass density: Pycnometric method
[2] = wn = mass fraction of the nth substance listed; details: 100 kPa, Liquid; for viscosity: Capillary tube (Ostwald / Ubbelohde) method; for mass density: Pycnometric method
[3] = mn = molality of the nth substance listed, in mol/kg; details: 100 kPa, Liquid, m1 = 4.416; for viscosity: Capillary tube (Ostwald / Ubbelohde) method; for mass density: Pycnometric method; for binary diffusion coefficient: absorption column

CN(CCO)CCO [N-methyldiethanolamine]
[1], 100 kPa
Details | mass density [kg/m3] | viscosity [mPa·s]
298 K | 1036.7 ± 4.8 | 77.6 ± 1.9
308 K | 1029.4 ± 4.8 | 44.33 ± 1.2
323 K | 1018.5 ± 4.9 | 22.3 ± 0.78

CN(CCO)CCO [N-methyldiethanolamine] + O
[2]
Details | mass density, w1 = 0.1 [kg/m3] | mass density, w1 = 0.2 [kg/m3] | mass density, w1 = 0.3 [kg/m3] | mass density, w1 = 1 [kg/m3] | viscosity, w1 = 0.1 [mPa·s] | viscosity, w1 = 0.2 [mPa·s] | viscosity, w1 = 0.3 [mPa·s] | viscosity, w1 = 1 [mPa·s]
298 K | 1005.7 ± 4.7 | 1015 ± 4.7 | 1024.6 ± 4.7 | 1036.7 ± 4.8 | 1.295 ± 0.1 | 1.925 ± 0.11 | 3.031 ± 0.11 | 77.6 ± 1.9
308 K | 1001.9 ± 4.7 | 1010.9 ± 4.7 | 1020.2 ± 4.7 | 1029.4 ± 4.8 | 1.007 ± 0.1 | 1.468 ± 0.1 | 2.251 ± 0.11 | 44.33 ± 1.2
323 K | 995.9 ± 4.7 | 1003.4 ± 4.7 | 1012 ± 4.7 | 1018.5 ± 4.9 | 0.748 ± 0.1 | 1.033 ± 0.1 | 1.491 ± 0.11 | 22.3 ± 0.78

[3]
Details | binary diffusion coefficient [m2/s] | mass density [kg/m3] | viscosity [mPa·s]
298 K | 8.2e-10 | 1036.91 ± 4.5 | 3.851 ± 0.091
303 K | 9.5e-10 | 1034.27 ± 4.4 | 3.22 ± 0.091
308 K | 1.09e-09 | 1030.94 ± 4.5 | 2.7 ± 0.086
313 K | 1.24e-09 | 1027.61 ± 4.5 | 2.215 ± 0.08
318 K | 1.37e-09 | 1024.05 ± 4.5 | 1.89 ± 0.075
323 K | 1.54e-09 | 1020.68 ± 4.5 | 1.62 ± 0.07

NCCCNCCCN [bis(3-aminopropyl)amine]
[1], 101.33 kPa
Details | mass density [kg/m3] | viscosity [mPa·s]
298 K | 927.36 ± 4.2 | 8.51 ± 0.15
303 K | 923.34 ± 4.2 | 7.04 ± 0.14
308 K | 919.32 ± 4.2 | 5.92 ± 0.13
313 K | 915.28 ± 4.2 | 5.05 ± 0.13
318 K | 911.18 ± 4.2 | 4.62 ± 0.12
323 K | 906.97 ± 4.2 | 3.99 ± 0.12
